Test results: ChEMBL document CHEMBL5550218, “Structural Insights into Protein-Inhibitor Interactions in Human Tryptophan Dioxygenase” (J Med Chem, 2024)

Molecular target: Tryptophan 2,3-dioxygenase (Homo sapiens, UniProt P48775)
Sequence (P48775 whole entry): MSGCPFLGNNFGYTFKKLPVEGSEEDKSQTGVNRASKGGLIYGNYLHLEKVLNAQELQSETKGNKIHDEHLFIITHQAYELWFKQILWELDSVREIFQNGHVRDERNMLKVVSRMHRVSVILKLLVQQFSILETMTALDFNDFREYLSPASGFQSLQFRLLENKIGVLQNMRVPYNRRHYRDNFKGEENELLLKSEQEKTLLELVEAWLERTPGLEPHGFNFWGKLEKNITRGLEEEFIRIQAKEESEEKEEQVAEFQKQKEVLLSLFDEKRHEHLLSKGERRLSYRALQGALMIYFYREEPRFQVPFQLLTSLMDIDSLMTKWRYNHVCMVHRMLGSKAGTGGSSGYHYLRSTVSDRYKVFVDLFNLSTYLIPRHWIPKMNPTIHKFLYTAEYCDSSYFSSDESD

IC50: 424 µM
SMILES: O=C1CC(c2c[nH]c3ccc(F)cc23)C(=O)N1 (stereo unspecified) [PF-06840003]
